Experiments:
Assay in all cases: relative viability (nuclei count vs DMSO), 5 days (fraction); higher = more cells survive
[1] = compound: Cn1cc(-c2cnn3c(N)c(Br)c([C@@H]4CCCNC4)nc23)cn1 + Cc1nc(Nc2ncc(C(=O)Nc3c(C)cccc3Cl)s2)cc(N2CCN(CCO)CC2)n1 [Dasatinib] (partner 0.075 µM)
Method in brief: (§1)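 Relative viability was taken as the ratio of nuclei in treated wells to nuclei in vehicle wells. Lung cancer cell lines in 1536-well plates received compounds by pin tool one day after seeding, either one drug alone or a fixed anchor-drug dose plus five library-drug doses (not always all listed) in √10 steps. Nuclei were counted on 4× images after 5 days of treatment, and values are medians of duplicate plates.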

[2] = compound: Cn1cc(-c2cnn3c(N)c(Br)c([C@@H]4CCCNC4)nc23)cn1 + CS(=O)(=O)N1CCN(Cc2cc3nc(-c4cccc5[nH]ncc45)nc(N4CCOCC4)c3s2)CC1 [Pictilisib] (partner 1 µM)
Method in brief: as §1

[3] = compound: Cn1cc(-c2cnn3c(N)c(Br)c([C@@H]4CCCNC4)nc23)cn1 + C[C@@H](Oc1cc(-c2cnn(C3CCNCC3)c2)cnc1N)c1c(Cl)ccc(F)c1Cl [Crizotinib] (partner 1 µM)
Method in brief: as §1

[4] = compound: Cn1cc(-c2cnn3c(N)c(Br)c([C@@H]4CCCNC4)nc23)cn1 + O=C(CCCCCCC(=O)Nc1ccccc1)NO [Vorinostat] (partner 1 µM)
Method in brief: as §1

| Cell Line | relative viability ([1]; first compound 0.05 µM) | relative viability ([1]; first compound 0.1581 µM) | relative viability ([1]; first compound 0.5 µM) | relative viability ([1]; first compound 1.581 µM) | relative viability ([1]; first compound 5 µM) | relative viability ([2]; first compound 0.05 µM) | relative viability ([2]; first compound 0.1581 µM) | relative viability ([2]; first compound 0.5 µM) | relative viability ([2]; first compound 1.581 µM) | relative viability ([2]; first compound 5 µM) | relative viability ([3]; first compound 0.05 µM) | relative viability ([3]; first compound 0.1581 µM) | relative viability ([3]; first compound 0.5 µM) | relative viability ([3]; first compound 1.581 µM) | relative viability ([3]; first compound 5 µM) | relative viability ([4]; first compound 0.05 µM) | relative viability ([4]; first compound 0.1581 µM) | relative viability ([4]; first compound 0.5 µM) | relative viability ([4]; first compound 1.581 µM) | relative viability ([4]; first compound 5 µM) |
| --- | --- | --- | --- | --- | --- | --- | --- | --- | --- | --- | --- | --- | --- | --- | --- | --- | --- | --- | --- | --- |
| HCC-366 | 0.644 | 0.562 | 0.628 | 0.467 | 0.22 | 0.278 | 0.17 | 0.156 | 0.205 | 0.263 | 0.53 | 0.737 | 0.474 | 0.405 | 0.209 | 0.333 | 0.402 | 0.337 | 0.301 | 0.211 |
| HCC-827 | 0.32 | 0.392 | 0.276 | 0.295 | 0.193 | 0.999 | 1.13 | 0.974 | 1 | 0.928 | 0.929 | 1 | 0.909 | 0.899 | 0.871 | 0.741 | 0.929 | 1.02 | 0.917 | 0.797 |
| HOP-62 | 0.66 | 0.702 | 0.568 | 0.589 | 0.316 | 0.896 | 0.699 | 0.586 | 0.444 | 0.455 | 0.999 | 1.07 | 1.01 | 0.925 | 0.884 | 0.698 | 0.775 | 0.645 | 0.386 | 0.209 |
| IA-LM | – | – | – | – | – | 0.357 | 0.372 | 0.33 | 0.206 | 0.196 | 0.944 | 1.01 | 0.886 | 0.321 | 0.271 | 1.11 | 1.12 | 1.11 | 0.672 | 0.64 |
| LC-2-ad | 0.486 | 0.544 | 0.504 | 0.327 | 0.458 | 0.546 | 0.466 | 0.335 | 0.349 | 0.272 | 0.503 | 0.439 | 0.419 | 0.447 | 0.426 | 0.683 | 0.808 | 0.662 | 0.76 | 0.735 |
| LCLC-97TM1 | 0.838 | 0.96 | 0.833 | 0.82 | 0.853 | 0.16 | 0.149 | 0.26 | 0.152 | 0.143 | 0.34 | 0.658 | 0.581 | 0.483 | 0.228 | 0.67 | 0.95 | 0.936 | 0.582 | 0.433 |
| LCLC-103H | 0.511 | 0.449 | 0.412 | 0.425 | 0.289 | 0.565 | 0.555 | 0.522 | 0.489 | 0.466 | 1.04 | 1.11 | 1.13 | 1.03 | 1.1 | 0.738 | 0.879 | 0.824 | 0.615 | 0.597 |
| LK-2 | 0.228 | 0.296 | 0.26 | – | 0.228 | 0.597 | 0.508 | 0.574 | 0.444 | 0.306 | 0.23 | 0.216 | 0.188 | 0.243 | 0.232 | 0.276 | 0.351 | 0.236 | 0.249 | 0.162 |
| LOU-NH91 | 0.561 | 0.506 | 0.514 | 0.519 | 0.48 | 0.518 | 0.515 | 0.527 | 0.535 | 0.511 | 0.727 | 0.724 | 0.739 | 0.713 | 0.626 | 0.849 | 0.911 | 0.908 | 0.863 | 0.703 |
| LU99A | 0.397 | 0.51 | 0.485 | 0.405 | 0.244 | 0.308 | 0.296 | 0.29 | 0.277 | 0.225 | 0.55 | 0.573 | 0.551 | 0.482 | 0.31 | 0.46 | 0.469 | 0.452 | 0.36 | 0.216 |
| LXF-289 | 0.216 | 0.209 | 0.181 | 0.221 | 0.209 | 0.827 | 0.907 | 0.896 | 0.712 | 0.825 | 0.82 | 0.929 | 0.945 | 0.81 | 0.807 | 0.731 | 0.795 | 0.745 | 0.746 | 0.757 |
| NCI-H522 | 0.785 | 0.849 | 0.551 | 0.828 | 0.831 | – | – | – | – | – | – | – | – | – | – | 0.845 | 0.936 | 0.871 | 0.842 | 0.797 |
| NCI-H1299 | – | – | – | – | – | 0.876 | 0.562 | 0.462 | 0.175 | 0.223 | 0.992 | 0.931 | 0.965 | 0.676 | 0.707 | – | – | – | – | – |
| NCI-H1395 | 0.397 | 0.463 | 0.399 | 0.368 | 0.351 | 0.575 | 0.671 | 0.562 | 0.51 | 0.585 | – | – | – | – | – | 0.533 | 0.427 | 0.556 | 0.49 | 0.317 |
| NCI-H1563 | 0.418 | 0.451 | 0.503 | 0.436 | 0.412 | 0.581 | 0.63 | 0.658 | 0.585 | 0.595 | 0.78 | 0.812 | 0.933 | 0.782 | 0.8 | – | – | – | – | – |
| NCI-H1648 | – | – | – | – | – | – | – | – | – | – | – | – | – | – | – | 0.449 | 0.296 | 0.313 | 0.327 | 0.463 |
| NCI-H1703 | – | – | – | – | – | 0.237 | 0.183 | 0.178 | 0.156 | 0.155 | 0.671 | 0.363 | 0.325 | 0.18 | 0.134 | – | – | – | – | – |
| NCI-H1792 | – | 0.852 | 0.624 | 0.933 | 0.425 | 0.318 | 0.288 | 0.24 | 0.241 | 0.164 | 0.843 | 0.861 | 0.861 | 0.656 | 0.582 | – | – | – | – | – |
| NCI-H1793 | 0.449 | 0.416 | 0.306 | 0.385 | 0.184 | 0.306 | 0.411 | 0.308 | 0.21 | 0.191 | – | – | – | – | – | 0.839 | 0.717 | 0.856 | 0.469 | 0.181 |
| NCI-H2342 | 0.31 | 0.3 | 0.345 | 0.336 | 0.28 | – | – | – | – | – | – | – | – | – | – | 0.636 | 0.8 | 0.824 | 0.68 | 0.712 |
